Results from ChEMBL document CHEMBL1201862, “PubChem BioAssay data set” (2004).
“And” between values parts separate entries of the source, which are not always exact repeats. Identical values can stand only once. Each block holds one compound with its values, some of them ahead of it. The source made the active and inactive calls.

Assays:
[1] = molecular target: T1, Tyrosine-protein phosphatase non-receptor type 7 (Homo sapiens, UniProt P35236); test: redox-active compounds inhibiting HePTP phosphatase – biochemical, fluorescence, mechanism study (AID 2068); assay type: functional
T1 sequence (P35236 whole entry): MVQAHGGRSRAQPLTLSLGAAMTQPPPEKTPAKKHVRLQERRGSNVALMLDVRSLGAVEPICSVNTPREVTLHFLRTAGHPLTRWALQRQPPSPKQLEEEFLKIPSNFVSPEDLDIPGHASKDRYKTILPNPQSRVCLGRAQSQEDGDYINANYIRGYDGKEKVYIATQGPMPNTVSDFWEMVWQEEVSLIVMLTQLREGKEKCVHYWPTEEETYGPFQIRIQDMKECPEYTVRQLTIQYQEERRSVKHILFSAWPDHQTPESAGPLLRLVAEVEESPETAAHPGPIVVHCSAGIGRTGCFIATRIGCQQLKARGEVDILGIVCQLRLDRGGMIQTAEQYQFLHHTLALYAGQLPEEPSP

[2] = molecular target: T2, Sphingosine 1-phosphate receptor 4 (Homo sapiens, UniProt O95977); test: Late-stage fluorescence dose response cell-based assay to identify agonists of the Sphingosine 1-Phosphate Receptor 4 (S1P4): purchased compounds EC50. [Related pubchem assays (depositor defined):AID1509, AID1523, AID1563, AID1686, AID1701, AID1801]; assay type: functional
T2 sequence (O95977 whole entry): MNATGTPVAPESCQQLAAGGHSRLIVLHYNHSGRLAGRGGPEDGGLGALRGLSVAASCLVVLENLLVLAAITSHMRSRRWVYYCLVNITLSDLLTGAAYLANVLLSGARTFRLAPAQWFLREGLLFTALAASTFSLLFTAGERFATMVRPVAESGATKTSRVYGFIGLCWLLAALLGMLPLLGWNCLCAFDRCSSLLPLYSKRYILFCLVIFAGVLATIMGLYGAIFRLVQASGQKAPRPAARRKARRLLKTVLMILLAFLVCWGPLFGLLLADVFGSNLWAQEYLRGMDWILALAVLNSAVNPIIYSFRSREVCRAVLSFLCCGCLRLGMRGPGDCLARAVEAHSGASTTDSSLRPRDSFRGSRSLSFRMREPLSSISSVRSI

HEK293 [3] = test: cells; settings: Homo sapiens
HEK293 [4] = test: cells; settings: Homo sapiens; remark: listed apart in the source
[5] = molecular target: T3, Short transient receptor potential channel 4 (Mus musculus, UniProt Q9QUQ5); test: block of DAMGO-driven TRPC4 calcium entry – cell-based, HEK293 TRPC4/mu-opioid, Fluo-4 calcium, dose response (AID 434942); assay type: functional;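 also: potency of inhibitors blocking the TRPC4 calcium response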
T3 sequence (Q9QUQ5 whole entry): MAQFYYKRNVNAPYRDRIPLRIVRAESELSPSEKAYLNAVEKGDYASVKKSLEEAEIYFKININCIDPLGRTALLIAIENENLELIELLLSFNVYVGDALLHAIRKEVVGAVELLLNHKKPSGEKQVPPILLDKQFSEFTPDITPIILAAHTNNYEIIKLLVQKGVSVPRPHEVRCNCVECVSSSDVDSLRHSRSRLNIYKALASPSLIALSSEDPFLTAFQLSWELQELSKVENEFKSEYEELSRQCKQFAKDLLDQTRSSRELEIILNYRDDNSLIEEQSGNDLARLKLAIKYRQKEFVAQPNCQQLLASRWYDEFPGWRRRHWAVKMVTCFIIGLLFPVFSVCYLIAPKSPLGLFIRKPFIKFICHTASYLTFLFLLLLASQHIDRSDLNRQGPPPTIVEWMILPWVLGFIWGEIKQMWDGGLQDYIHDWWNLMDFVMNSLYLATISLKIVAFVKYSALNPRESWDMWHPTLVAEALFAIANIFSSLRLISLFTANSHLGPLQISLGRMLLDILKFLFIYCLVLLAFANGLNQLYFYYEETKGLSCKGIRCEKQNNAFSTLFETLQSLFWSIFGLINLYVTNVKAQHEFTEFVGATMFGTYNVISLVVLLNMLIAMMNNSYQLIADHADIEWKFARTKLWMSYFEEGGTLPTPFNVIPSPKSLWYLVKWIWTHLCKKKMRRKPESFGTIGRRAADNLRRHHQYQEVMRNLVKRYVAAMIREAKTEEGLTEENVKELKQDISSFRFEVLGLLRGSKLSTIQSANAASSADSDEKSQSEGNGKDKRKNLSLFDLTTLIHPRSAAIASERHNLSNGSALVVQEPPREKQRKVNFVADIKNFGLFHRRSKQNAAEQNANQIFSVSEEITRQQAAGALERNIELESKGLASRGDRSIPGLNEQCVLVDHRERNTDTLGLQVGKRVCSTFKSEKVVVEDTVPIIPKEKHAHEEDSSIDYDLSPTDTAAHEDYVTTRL

Perilipin-1/ABHD5 = Perilipin-1/ABHD5 (Homo sapiens, UniProt O60240+Q8WTS1); test: Luminescence-based biochemical high throughput dose response assay for inhibitors of the interaction of the lipase co-activator protein, abhydrolase domain containing 5 (ABHD5) with perilipin-1 (PLIN1) (2K validation set). [Related pubchem assays (depositor defined):AID493027, AID493057]
[6] = molecular target: 1-acylglycerol-3-phosphate O-acyltransferase ABHD5/Perilipin-5 (Homo sapiens, UniProt Q00G26+Q8WTS1); test: Luminescence-based biochemical high throughput dose response assay for inhibitors of the interaction of the lipase co-activator protein, abhydrolase domain containing 5 (ABHD5) with perilipin-5 (MLDP; PLIN5) (2K validation set). [Related pubchem assays (depositor defined):AID493035, AID493241]
Bcl-2-related protein A1 = molecular target: T4, Bcl-2-related protein A1 (Mus musculus, UniProt Q07440); assay type: functional;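 also: confirmatory dose–response counterscreen on Bfl-1, used to check hits from a UBC13 polyubiquitin inhibitor campaign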
T4 sequence (Q07440 whole entry): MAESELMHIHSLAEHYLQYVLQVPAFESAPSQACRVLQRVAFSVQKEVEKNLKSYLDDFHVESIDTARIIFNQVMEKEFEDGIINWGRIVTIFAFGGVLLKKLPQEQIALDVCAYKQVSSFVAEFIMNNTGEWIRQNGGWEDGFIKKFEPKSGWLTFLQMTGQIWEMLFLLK

[7] = molecular target: Delta-type opioid receptor (Homo sapiens, UniProt P41143); test: Counterscreen for agonists of heterodimerization of the mu 1 (OPRM1) and delta 1 (OPRD1) opioid receptors: Luminescence-based cell-based high throughput dose response assay to identify agonists of OPRD1 homodimerization. [Related pubchem assays (depositor defined):AID504326, AID504355, AID504692, AID504904, AID504905]; assay type: functional
[8] = Fluorescence-based cell-based high throughput dose response assay for inhibitors of the interaction of nucleotide-binding oligomerization domain containing 2 (NOD2) and the receptor-interacting serine-threonine kinase 2 (RIPK2).; assay type: functional; settings: Homo sapiens
[9] = molecular target: T5, Ubiquitin-conjugating enzyme E2 N (Homo sapiens, UniProt P61088); assay type: functional
T5 sequence (P61088 whole entry): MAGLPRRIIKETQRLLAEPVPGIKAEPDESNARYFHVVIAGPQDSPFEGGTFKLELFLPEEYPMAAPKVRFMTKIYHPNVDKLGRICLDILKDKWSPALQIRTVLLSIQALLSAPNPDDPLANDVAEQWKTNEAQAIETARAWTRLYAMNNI

[10] = molecular target: 5-hydroxytryptamine receptor 5A (Homo sapiens, UniProt P47898); test: Counterscreen for agonists of OPRM1-OPRD1 heterodimerization: luminescence-based cell-based high throughput dose response assay to identify agonists of 5-hydroxytryptamine (serotonin) 5A receptor (HTR5A). [Related pubchem assays (depositor defined):AID504326, AID504355, AID504692, AID504904, AID504905]; assay type: functional
[11] = molecular target: T5, Ubiquitin-conjugating enzyme E2 N; assay type: functional; remark: listed apart in the source
Mu-type opioid receptor = Mu-type opioid receptor (Homo sapiens, UniProt P35372); test: Counterscreen for agonists of heterodimerization of the mu 1 (OPRM1) and delta 1 (OPRD1) opioid receptors: Luminescence-based cell-based high throughput dose response assay to identify agonists of OPRM1 homodimerization.; assay type: functional;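 also: U2OS cells expressing OPRM1 and beta-arrestin as split beta-galactosidase partners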
[12] = molecular target: T6, Type-1 angiotensin II receptor (Homo sapiens, UniProt P30556); test: agonist activity at AGTR1 – cell-based, uHTS hits, selectivity assay for APJ receptor agonist project, dose response (AID 488865); assay type: functional;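 also: beta-arrestin recruitment to AT1 measured by enzyme fragment complementation luminescence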
T6 sequence (P30556 whole entry): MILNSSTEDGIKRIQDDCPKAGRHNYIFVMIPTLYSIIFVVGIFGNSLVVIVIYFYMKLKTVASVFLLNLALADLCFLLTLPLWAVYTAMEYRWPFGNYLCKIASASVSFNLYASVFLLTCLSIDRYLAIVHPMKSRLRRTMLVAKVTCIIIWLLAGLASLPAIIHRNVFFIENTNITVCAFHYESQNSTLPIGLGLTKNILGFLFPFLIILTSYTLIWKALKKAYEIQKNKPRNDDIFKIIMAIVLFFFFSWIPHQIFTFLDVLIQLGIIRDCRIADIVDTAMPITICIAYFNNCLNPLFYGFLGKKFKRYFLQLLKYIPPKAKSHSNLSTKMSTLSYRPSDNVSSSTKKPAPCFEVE

[13] = molecular target: Eukaryotic translation initiation factor 4E (Mus musculus, UniProt P63073); test: blockers of eIF4G binding by eIF4E – biochemical, TR-FRET, dose response (AID 855); assay type: functional;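 also: potency for disrupting eIF4E binding to eIF4GI seen as loss of FRET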
[14] = molecular target: Alkaline phosphatase, placental type (Homo sapiens, UniProt P05187); test: human placental alkaline phosphatase inhibition – biochemical, luminescence, confirmation (AID 1512); assay type: functional
[15] = molecular target: T7, Alkaline phosphatase, tissue-nonspecific isozyme (Homo sapiens, UniProt P05186); test: potency against alkaline phosphatase TNAP – biochemical, luminescent, dose response, SAR follow-up (AID 1056)
T7 sequence (P05186 whole entry): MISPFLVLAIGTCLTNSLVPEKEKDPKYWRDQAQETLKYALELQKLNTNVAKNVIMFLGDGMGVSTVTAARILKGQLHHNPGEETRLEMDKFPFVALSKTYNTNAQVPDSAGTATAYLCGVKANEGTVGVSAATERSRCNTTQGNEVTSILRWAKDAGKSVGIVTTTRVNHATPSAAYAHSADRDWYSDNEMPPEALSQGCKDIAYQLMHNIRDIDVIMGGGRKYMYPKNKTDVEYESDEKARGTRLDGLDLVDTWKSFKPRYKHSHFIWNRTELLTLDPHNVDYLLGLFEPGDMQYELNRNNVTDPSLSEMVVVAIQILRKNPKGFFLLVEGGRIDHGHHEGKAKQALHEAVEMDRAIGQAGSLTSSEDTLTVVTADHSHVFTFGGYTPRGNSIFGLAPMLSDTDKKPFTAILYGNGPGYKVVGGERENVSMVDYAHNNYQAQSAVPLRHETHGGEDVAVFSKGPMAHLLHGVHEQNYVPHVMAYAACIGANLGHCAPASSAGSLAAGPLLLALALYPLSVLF

[16] = molecular target: Glyceraldehyde-3-phosphate dehydrogenase (Homo sapiens, UniProt P04406)
[17] = molecular target: T8, Voltage-gated N-type calcium channel alpha-1B subunit/Amyloid beta A4 precursor protein-binding family A member 1 (Homo sapiens, UniProt Q00975+Q02410); assay type: protein assay
[18] = molecular target: Induced myeloid leukemia cell differentiation protein Mcl-1 (Homo sapiens, UniProt Q07820); assay type: functional
[19] = molecular target: T8, Voltage-gated N-type calcium channel alpha-1B subunit/Amyloid beta A4 precursor protein-binding family A member 1; assay type: protein assay; remark: listed apart in the source

Sequence of 1-acylglycerol-3-phosphate O-acyltransferase ABHD5/Perilipin-5 (Q00G26 whole entry, the tested form may be a part): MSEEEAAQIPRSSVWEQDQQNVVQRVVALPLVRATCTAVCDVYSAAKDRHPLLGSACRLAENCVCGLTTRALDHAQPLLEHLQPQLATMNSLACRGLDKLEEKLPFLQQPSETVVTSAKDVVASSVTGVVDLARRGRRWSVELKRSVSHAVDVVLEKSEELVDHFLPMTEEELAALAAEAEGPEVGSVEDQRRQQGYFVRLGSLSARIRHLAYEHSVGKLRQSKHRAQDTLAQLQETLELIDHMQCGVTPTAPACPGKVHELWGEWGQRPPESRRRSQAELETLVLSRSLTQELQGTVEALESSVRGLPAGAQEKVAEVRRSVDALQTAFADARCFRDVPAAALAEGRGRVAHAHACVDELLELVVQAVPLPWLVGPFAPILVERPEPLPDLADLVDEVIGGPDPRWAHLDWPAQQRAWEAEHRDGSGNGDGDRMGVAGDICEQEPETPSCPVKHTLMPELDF
Sequence of 1-acylglycerol-3-phosphate O-acyltransferase ABHD5/Perilipin-5 (Q8WTS1 whole entry, the tested form may be a part): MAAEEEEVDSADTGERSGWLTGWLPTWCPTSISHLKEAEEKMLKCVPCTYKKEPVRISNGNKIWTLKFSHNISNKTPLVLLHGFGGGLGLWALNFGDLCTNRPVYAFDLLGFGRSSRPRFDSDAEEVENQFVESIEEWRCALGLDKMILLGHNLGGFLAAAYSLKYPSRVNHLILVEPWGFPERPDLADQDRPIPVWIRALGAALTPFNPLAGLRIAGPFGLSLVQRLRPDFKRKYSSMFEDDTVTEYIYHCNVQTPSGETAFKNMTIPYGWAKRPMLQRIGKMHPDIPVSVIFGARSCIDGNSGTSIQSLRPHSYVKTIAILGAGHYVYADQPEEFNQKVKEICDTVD
Sequence of Perilipin-1/ABHD5 (Q8WTS1 whole entry, the tested form may be a part): as above
Sequence of Perilipin-1/ABHD5 (O60240 whole entry, the tested form may be a part): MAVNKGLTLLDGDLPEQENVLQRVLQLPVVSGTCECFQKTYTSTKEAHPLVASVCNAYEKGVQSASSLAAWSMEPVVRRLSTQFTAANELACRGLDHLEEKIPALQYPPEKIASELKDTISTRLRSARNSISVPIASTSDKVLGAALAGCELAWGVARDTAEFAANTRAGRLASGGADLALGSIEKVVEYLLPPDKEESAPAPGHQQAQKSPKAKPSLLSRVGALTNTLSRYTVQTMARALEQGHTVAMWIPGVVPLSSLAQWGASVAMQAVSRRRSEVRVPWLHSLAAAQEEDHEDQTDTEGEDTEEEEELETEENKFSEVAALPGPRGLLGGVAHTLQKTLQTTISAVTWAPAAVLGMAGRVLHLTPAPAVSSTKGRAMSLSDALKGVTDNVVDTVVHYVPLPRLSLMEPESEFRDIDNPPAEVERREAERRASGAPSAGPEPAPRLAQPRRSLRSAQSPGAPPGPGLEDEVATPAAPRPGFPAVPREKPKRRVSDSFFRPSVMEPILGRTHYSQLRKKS
Sequence of Alkaline phosphatase, placental type (P05187 whole entry): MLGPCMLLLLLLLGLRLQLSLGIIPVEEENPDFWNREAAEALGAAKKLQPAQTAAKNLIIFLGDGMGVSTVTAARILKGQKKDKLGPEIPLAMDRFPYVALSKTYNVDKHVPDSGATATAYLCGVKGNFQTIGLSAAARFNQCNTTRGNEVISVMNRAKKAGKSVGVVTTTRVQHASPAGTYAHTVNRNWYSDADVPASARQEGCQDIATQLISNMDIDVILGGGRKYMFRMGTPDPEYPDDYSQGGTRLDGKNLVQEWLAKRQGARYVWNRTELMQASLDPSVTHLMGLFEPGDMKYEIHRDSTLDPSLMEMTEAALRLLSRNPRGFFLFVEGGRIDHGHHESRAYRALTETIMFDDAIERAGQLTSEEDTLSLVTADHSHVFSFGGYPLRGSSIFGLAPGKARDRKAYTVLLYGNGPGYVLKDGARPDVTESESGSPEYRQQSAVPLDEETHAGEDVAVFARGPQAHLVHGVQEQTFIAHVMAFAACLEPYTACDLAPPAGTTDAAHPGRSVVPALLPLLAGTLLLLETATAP
T8 sequence (Q00975 whole entry): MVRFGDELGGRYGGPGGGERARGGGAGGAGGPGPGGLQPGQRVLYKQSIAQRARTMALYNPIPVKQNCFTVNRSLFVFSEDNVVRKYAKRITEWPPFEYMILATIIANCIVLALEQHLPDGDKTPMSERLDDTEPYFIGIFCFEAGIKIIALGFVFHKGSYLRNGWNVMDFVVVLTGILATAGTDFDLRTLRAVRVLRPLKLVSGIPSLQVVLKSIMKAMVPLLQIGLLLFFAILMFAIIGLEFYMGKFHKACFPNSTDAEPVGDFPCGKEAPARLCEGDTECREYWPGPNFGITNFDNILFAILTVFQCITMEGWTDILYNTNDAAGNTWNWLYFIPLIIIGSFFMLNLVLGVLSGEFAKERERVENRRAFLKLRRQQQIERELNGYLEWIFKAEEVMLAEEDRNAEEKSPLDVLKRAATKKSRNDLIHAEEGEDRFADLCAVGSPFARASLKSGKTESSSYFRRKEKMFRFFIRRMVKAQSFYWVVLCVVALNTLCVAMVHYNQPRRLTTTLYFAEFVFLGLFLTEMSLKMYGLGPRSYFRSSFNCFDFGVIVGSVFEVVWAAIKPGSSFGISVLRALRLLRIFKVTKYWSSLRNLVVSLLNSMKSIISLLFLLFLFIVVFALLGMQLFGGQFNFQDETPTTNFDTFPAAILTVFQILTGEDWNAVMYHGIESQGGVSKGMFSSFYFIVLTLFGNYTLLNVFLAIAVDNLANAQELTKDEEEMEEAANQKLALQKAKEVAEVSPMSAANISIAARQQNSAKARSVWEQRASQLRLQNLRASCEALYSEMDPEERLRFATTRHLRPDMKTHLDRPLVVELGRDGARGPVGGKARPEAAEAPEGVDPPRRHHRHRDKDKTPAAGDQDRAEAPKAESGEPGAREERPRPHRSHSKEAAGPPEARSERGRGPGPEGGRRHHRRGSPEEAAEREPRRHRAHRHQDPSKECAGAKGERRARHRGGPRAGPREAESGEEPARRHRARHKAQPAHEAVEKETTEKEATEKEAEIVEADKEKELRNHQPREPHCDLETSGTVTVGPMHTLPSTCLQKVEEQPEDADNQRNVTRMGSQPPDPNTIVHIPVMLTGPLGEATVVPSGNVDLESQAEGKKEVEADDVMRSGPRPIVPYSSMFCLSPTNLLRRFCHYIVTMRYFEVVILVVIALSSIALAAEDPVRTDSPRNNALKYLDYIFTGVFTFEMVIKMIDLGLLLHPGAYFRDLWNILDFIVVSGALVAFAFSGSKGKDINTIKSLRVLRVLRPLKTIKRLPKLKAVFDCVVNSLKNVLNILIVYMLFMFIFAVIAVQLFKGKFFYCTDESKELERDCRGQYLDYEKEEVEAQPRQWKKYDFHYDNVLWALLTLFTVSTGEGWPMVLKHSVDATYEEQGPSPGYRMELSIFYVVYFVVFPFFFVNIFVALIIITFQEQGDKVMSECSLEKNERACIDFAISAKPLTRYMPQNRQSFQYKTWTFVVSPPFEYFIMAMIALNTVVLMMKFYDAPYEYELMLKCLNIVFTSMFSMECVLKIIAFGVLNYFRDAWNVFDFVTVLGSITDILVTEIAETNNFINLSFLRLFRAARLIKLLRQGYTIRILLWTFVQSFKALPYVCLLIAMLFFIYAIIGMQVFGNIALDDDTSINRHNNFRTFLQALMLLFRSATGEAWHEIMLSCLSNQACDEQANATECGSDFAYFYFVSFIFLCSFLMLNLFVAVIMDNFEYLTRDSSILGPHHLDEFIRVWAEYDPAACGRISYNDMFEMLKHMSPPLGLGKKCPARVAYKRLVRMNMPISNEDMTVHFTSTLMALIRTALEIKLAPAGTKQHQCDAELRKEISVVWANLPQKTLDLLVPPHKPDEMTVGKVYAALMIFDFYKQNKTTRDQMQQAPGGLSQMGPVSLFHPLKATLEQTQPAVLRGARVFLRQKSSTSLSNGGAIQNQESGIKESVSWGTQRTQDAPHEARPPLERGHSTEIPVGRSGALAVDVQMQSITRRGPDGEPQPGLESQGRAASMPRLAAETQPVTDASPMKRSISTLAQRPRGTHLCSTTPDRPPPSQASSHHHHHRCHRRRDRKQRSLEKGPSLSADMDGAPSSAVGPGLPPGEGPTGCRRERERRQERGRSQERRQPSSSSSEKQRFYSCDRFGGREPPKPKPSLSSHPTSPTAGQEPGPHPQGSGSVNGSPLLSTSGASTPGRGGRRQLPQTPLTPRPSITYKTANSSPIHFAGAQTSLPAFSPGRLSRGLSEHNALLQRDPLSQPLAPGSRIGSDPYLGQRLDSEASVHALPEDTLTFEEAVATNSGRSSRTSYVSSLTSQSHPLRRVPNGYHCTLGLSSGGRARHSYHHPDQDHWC
T8 sequence (Q02410 whole entry): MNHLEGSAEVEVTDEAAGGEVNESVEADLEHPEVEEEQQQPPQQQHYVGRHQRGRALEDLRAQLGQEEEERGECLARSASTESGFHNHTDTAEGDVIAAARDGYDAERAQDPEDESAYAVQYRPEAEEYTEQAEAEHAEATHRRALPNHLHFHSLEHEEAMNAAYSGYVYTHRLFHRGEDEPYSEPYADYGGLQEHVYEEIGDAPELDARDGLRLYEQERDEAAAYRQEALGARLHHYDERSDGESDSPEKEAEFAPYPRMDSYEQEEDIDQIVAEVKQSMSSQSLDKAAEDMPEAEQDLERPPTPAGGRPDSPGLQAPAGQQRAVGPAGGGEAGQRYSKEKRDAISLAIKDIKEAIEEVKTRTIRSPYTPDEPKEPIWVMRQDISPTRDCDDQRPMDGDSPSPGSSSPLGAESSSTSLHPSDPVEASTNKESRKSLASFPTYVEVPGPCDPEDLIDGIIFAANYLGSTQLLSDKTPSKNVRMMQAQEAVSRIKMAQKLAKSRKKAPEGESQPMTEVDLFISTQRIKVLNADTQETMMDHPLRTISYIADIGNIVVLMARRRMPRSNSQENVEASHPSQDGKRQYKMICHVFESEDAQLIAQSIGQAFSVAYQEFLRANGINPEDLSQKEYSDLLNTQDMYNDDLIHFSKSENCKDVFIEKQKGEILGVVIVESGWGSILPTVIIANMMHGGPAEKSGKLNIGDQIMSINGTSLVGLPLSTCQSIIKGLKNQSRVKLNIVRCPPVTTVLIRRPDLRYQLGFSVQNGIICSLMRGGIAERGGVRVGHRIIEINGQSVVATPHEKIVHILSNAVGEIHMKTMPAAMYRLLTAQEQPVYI

Structure (SMILES): O=C(NCCN1CCOCC1)c1cc2sccc2n1Cc1ccc(F)cc1
EC50 (HEK293 [3]): > 59.7 µM (inactive)
EC50 (HEK293 [4]): > 59.7 µM (inactive)
EC50 [5]: 5.96 µM (active)

Structure (SMILES): CCNC(=O)NC(=O)C(C)OC(=O)c1c(C)nn(Cc2ccccc2Cl)c1Cl (stereo not drawn)
EC50 [2]: 1.5 µM (active) and 2.5 µM (active)

Structure (SMILES): CCOc1cc2c3c(c1)C(C)=CC(C)(C)N3C(=O)C2=O
IC50 (Perilipin-1/ABHD5): 15.3 µM (inactive)
IC50 [6]: 15 µM (inactive)

Structure (SMILES): CCc1ccc2nc(N(CCCN(C)C)C(=O)c3ccc(S(=O)(=O)N4CCc5ccccc5C4)cc3)sc2c1
IC50 (Bcl-2-related protein A1): > 20 µM (inactive)
EC50 [7]: > 92.5 µM (inactive)
IC50 [8]: 80 µM (inactive)
IC50 [9]: 4.49 µM (active)
EC50 [10]: > 92.5 µM (inactive)
IC50 [11]: 4.58 µM (active)
EC50 (Mu-type opioid receptor): > 92.5 µM (inactive)
EC50 [12]: > 100 µM (inactive)

Structure (SMILES): Cn1ccnc1SCC(=O)c1ccc(O)c(O)c1
IC50 [14]: 8.56 µM (active)
IC50 [15]: 75.7 µM (active)

Now from value to compound:

IC50 [1]: 12.2 µM (active)
Structure (SMILES): COc1ccc(NC(=O)Nc2ccc3nc(-c4ccco4)c(-c4ccco4)nc3c2)cc1

EC50 [2]: > 50 µM (inactive)
Structure (SMILES): Cc1ccc(OCC(=O)NCCc2ccc(Cl)cc2Cl)c([N+](=O)[O-])n1

EC50 [5]: 1.5 µM (active)
Structure (SMILES): Cc1ccc(O)c(CNc2nc3ccccc3[nH]2)c1

IC50 (Perilipin-1/ABHD5): 20.8 µM (inactive)
IC50 [13]: 50 µM (inactive)
IC50 [6]: 20.6 µM (inactive)
Structure (SMILES): CC1(C)c2ccccc2N2CC(=O)NC21/C=C/c1ccco1 (stereo not drawn)

IC50 [14]: > 100 µM (inactive)
IC50 [15]: > 100 µM (inactive)
IC50 [16]: > 100 µM (not active)
Structure (SMILES): Clc1ccccc1-c1nnc2c3cnn(-c4ccccc4)c3ncn12

IC50 [17]: > 56.8 µM (not active)
IC50 [18]: 3.18 µM (active)
IC50 [19]: > 50 µM (inactive)
Structure (SMILES): CCOC(=O)c1ccc(N=Nc2c(O)nc(O)c(C#N)c2C)cc1
